Reference: patent US8586620B2, “Substituted indole compounds having NOS inhibitory activity” (NeurAxon, Inc., priority 2005, dated 2013)
Like-named read-outs stand apart in the source and are kept apart here.

How the values were obtained:
[1] = target: human neuronal constitutive NOS (nNOS) (Homo sapiens (Human), UniProt P29475); experiment: Human nNOS enzyme assay, radiometric [3H]L-arginine to [3H]L-citrulline;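 note: recombinant human nNOS expressed in baculovirus-infected Sf9 cells, enzyme activity measured radiometrically as turnover of [3H]L-arginine into [3H]L-citrulline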
[2] = target: human endothelial constitutive NOS (eNOS) (Homo sapiens (Human), UniProt P29474); experiment: Human eNOS enzyme assay, radiometric;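 note: recombinant human eNOS expressed in baculovirus-infected Sf9 cells, activity read as [3H]L-arginine turned into [3H]L-citrulline, the product isolated on ion-exchange resin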
[3] = target: human inducible NOS (iNOS) (Homo sapiens (Human), UniProt P35228); experiment: Human iNOS enzyme assay, radiometric; format: biochemical
Text: Standard deviations were 10% or less.

[4] = read-out: nNOSh, Table II, human NOS, dihydrochloride or monohydrochloride salts
[5] = read-out: eNOSh, Table II, human NOS, dihydrochloride or monohydrochloride salts
[6] = read-out: nNOSh, Table I, human NOS, dihydrochloride or monohydrochloride salts
[7] = read-out: eNOSh, Table I, human NOS, dihydrochloride or monohydrochloride salts
[8] = Table I, human NOS, dihydrochloride or monohydrochloride salts, read-out: iNOSh

Row | SMILES | e/n ([1]; Table II, ratio eNOSh/nNOSh) | IC50 [1, 4] [µM] | IC50 [2, 5] [µM] | IC50 [1, 6] [µM] | e/n ([1]; Table I, ratio eNOSh/nNOSh) | IC50 [2, 7] [µM] | other results
1 | N=C(Nc1ccc2[nH]cc(-c3ccncc3)c2c1)c1cccs1 [Compound 73, N-(3-(pyridin-4-yl)-1H-indol-5-yl)thiophene-2-carboximidamide] |  |  |  | 2.2 | 19.7 | 43.4 | 
2 | CN1CC=C(c2c[nH]c3ccc(CNC(=N)c4cccs4)cc23)CC1 [Compound 51, N-((3-(1-methyl-1,2,3,6-tetrahydropyridin-4-yl)-1H-indol-5-yl)methyl)thiophene-2-carboximidamide] |  |  |  | 1.19 | 42 | 49.7 | IC50 [3, 8]: 85 µM
3 | CNC1CC=C(c2c[nH]c3ccc(NC(=N)c4cccs4)cc23)CC1 (stereo not drawn) [Compound 100, N-(3-(4-(methylamino)cyclohex-1-enyl)-1H-indol-5-yl)thiophene-2-carboximidamide] |  |  |  | 1.73 | 18.5 | 32 | 
4 | N=C(Nc1ccc2[nH]cc(C3CN4CCC3CC4)c2c1)c1ccco1 (stereo not drawn) [Compound 127, N-(3-(quinuclidin-3-yl)-1H-indol-5-yl)furan-2-carboximidamide] |  |  |  | 2.6 | 25.3 | 66 | 
5 | N=C(Nc1ccc2[nH]cc(C3CCNCC3)c2c1)c1cccs1 [Compound 88, N-(3-(piperidin-4-yl)-1H-indol-5-yl)thiophene-2-carboximidamide] |  |  |  | 9.23 | 8.5 | 78.1 | 
6 | CN(C)CCc1c[nH]c2ccc(CNC(=N)c3cccs3)cc12 [Compound 59, N-((3-(2-(dimethylamino)ethyl)-1H-indol-5-yl)methyl)thiophene-2-carboximidamide] |  |  |  |  |  | 86.2 | e/n [1]: 7; IC50 ([1]; read-out: nNOSh): 12.8 µM
7 | CN1CC=C(c2c[nH]c3ccc(NC(=N)c4ccco4)cc23)CC1 [Compound 46, N-(3-(1-methyl-1,2,3,6-tetrahydropyridin-4-yl)-1H-indol-5-yl)furan-2-carboximidamide] |  |  |  | 1.78 | 31 | 54 | IC50 [3, 8]: 58 µM
8 | CN1CCC(c2c[nH]c3ccc(NC(=N)c4cccs4)cc23)CC1 [Compound 43, N-(3-(1-methylpiperidin-4-yl)-1H-indol-5-yl)thiophene-2-carboximidamide] |  |  |  | 1.88 | 17 | 32.6 | IC50 [3, 8]: 58 µM
9 | N=C(Nc1ccc2[nH]cc(C3CCN(C(=O)c4ccccc4)CC3)c2c1)c1cccs1 [Compound 70, N-(3-(1-benzoylpiperidin-4-yl)-1H-indol-5-yl)thiophene-2-carboximidamide] |  |  |  | 5.62 | 9.06 | 50.9 | 
10 | CN1CCC[C@@H]1Cc1c[nH]c2ccc(NC(=N)c3ccco3)cc12 [Compound 106, (R)-N-(3-((1-Methylpyrrolidin-2-yl)methyl)-1H-indol-5-yl)furan-2-carboximidamide] |  |  |  | 2.08 | 13.0 | 27.1 | 
11 | N=C(Nc1ccc2ccn(CCc3ccccc3)c2c1)c1cccs1 [Compound 115] | >8.3 |  |  |  |  |  | IC50 ([1]; read-out: nNOSh): 12 µM; IC50 ([2]; read-out: eNOSh): > 100 µM
12 | CN1CCC[C@H]1Cc1c[nH]c2ccc(NC(=N)c3ccco3)cc12 [Compound 107, (S)-N-(3-((1-methylpyrrolidin-2-yl)methyl)-1H-indol-5-yl)furan-2-carboximidamide] |  |  |  | 2.52 | 9.9 | 24.9 | 
13 | CN1C2C=C(c3c[nH]c4ccc(NC(=N)c5cccs5)cc34)CC1CC2 (stereo not drawn) [Compound 90, N-(3-(8-methyl-8-azabicyclo[3.2.1]oct-3-en-3-yl)-1H-indol-5-yl)thiophene-2-carboximidamide] |  |  |  | 3.35 | 20.3 | 67.9 | 
14 | CN(C)C1CC=C(c2c[nH]c3ccc(NC(=N)c4cccs4)cc23)CC1 (stereo not drawn) [Compound 114, N-(3-(4-(dimethylamino)cyclohex-1-enyl)-1H-indol-5-yl)thiophene-2-carboximidamide] |  |  |  | 3 | 17.1 | 51.4 | 
15 | N=C(Nc1ccc2[nH]cc(C3CN4CCC3CC4)c2c1)c1cccs1 (stereo not drawn) [Compound 126, N-(3-(quinuclidin-3-yl)-1H-indol-5-yl)thiophene-2-carboximidamide] |  |  |  | 1.04 | 30.9 | 32.1 | 
16 | N=C(Nc1ccc2ccn(CCN3CCCCC3)c2c1)c1cccs1 [Compound 37] |  |  |  |  |  |  | IC50 ([3]; Table 2b, read-out: Human iNOS): 21 µM; IC50 ([1]; read-out: Human nNOS, Table 2b): 0.49 µM; IC50 ([2]; read-out: Human eNOS, Table 2b): 3.8 µM
17 | CN(C)C1CCC(c2c[nH]c3ccc(NC(=N)c4cccs4)cc23)CC1 (stereo not drawn) [Compound 116, N-(3-(4-(dimethylamino)cyclohexyl)-1H-indol-5-yl)thiophene-2-carboximidamide] |  |  |  |  | 9.2 | 31.8 | 
18 | N=C(Nc1ccc2[nH]cc(C3CCN(C(=N)c4cccs4)CC3)c2c1)c1cccs1 [Compound 77, N-(3-(1-(imino(thiophen-2-yl)methyl)piperidin-4-yl)-1H-indol-5-yl)thiophene-2-carboximidamide] |  |  |  | 0.717 | 6.19 | 4.44 | 
19 | CCN1CCC(c2c[nH]c3ccc(NC(=N)c4cccs4)cc23)CC1 [Compound 62, N-(3-(1-ethylpiperidin-4-yl)-1H-indol-5-yl)thiophene-2-carboximidamide] |  |  |  | 2.43 | 24 | 57.3 | 
20 | CN1CCC(c2c[nH]c3ccc(NC(=N)c4ccco4)cc23)CC1 [Compound 47, N-(3-(1-methylpiperidin-4-yl)-1H-indol-5-yl)furan-2-carboximidamide] |  |  |  | 2.24 |  | 97.4 | IC50 [3, 8]: 55 µM
21 | CN1CC=C(c2c[nH]c3ccc(NC(=S)NC(=O)c4ccccc4)cc23)CC1 [Compound 64, N-(3-(1-methyl-1,2,3,6-tetrahydropyridin-4-yl)-1H-indol-5-ylcarbamothioyl)benzamide] |  |  |  | 14 | 3 | 43 | 
22 | CSC(=N)Nc1ccc2[nH]cc(C3=CCN(C)CC3)c2c1 [Compound 75, Methyl 3-(1-methyl-1,2,3,6-tetrahydropyridin-4-yl)-1H-indol-5-ylcarbamimidothioate] |  |  |  | 2.25 | 16.0 | 36.1 | 
23 | CCSC(=N)Nc1ccc2[nH]cc(C3=CCN(C)CC3)c2c1 [Compound 67, Ethyl 3-(1-methyl-1,2,3,6-tetrahydropyridin-4-yl)-1H-indol-5-ylcarbamimidothioate] |  |  |  | 4.8 | 22 | 105 | 

The next lines start with results.

Row | e/n ([1]; Table II, ratio eNOSh/nNOSh) | IC50 [1, 4] [µM] | IC50 [2, 5] [µM] | IC50 [1, 6] [µM] | SMILES | e/n ([1]; Table I, ratio eNOSh/nNOSh) | IC50 [2, 7] [µM] | other results
24 | 14.2 | 2.4 | 34 |  | N=C(Nc1ccc2ccn(CCCN3CCOCC3)c2c1)c1ccco1 [Compound 183] |  |  | 
25 | 50 | 0.32 | 16 |  | CN1CCC[C@@H]1CCn1ccc2ccc(NC(=N)c3cccs3)cc21 [Compound 138] |  |  | 
26 | 3.74 | 1.22 | 4.56 |  | N=C(Nc1ccc2ccn(CCCCn3ccnc3)c2c1)c1cccs1 [Compound 167] |  |  | 
27 | 7.8 | 0.49 | 3.8 |  | N=C(Nc1ccc2ccn(CCN3CCCCC3)c2c1)c1cccs1 [Compound 136] |  |  | 
28 | 42.5 | 0.87 | 37 |  | CN1CCCC(n2ccc3ccc(NC(=N)c4cccs4)cc32)CC1 (stereo not drawn) [Compound 156] |  |  | 
29 | 17.2 | 0.59 | 10.2 |  | CCN(CC)CCCn1ccc2ccc(NC(=N)c3cccs3)cc21 [Compound 158] |  |  | 
30 | 19 | 1 | 19 |  | N=C(Nc1ccc2ccn(CCCN3CCOCC3)c2c1)c1ccoc1 [Compound 184] |  |  | 
31 | 5.57 | 1.78 | 9.91 |  | CNCCCn1ccc2ccc(NC(=N)c3cccs3)cc21 [Compound 161] |  |  | 
32 |  |  |  | 2 | N=C(Nc1ccc2[nH]cc(CCCN3CCOCC3)c2c1)c1cccs1 [Compound 181, N-(3-(3-morpholinopropyl)-1H-indol-5-yl)thiophene-2-carboximidamide] | 9.9 | 31 | IC50 [3, 8]: 9.9 µM
33 | 9.6 | 0.26 | 2.53 |  | N=C(Nc1ccc2ccn(CCCCn3ccnc3)c2c1)c1cccs1 [Compound 168, N-(1-(4-(1H-imidazol-1-yl)butyl)-1H-indol-6-yl)thiophene-2-carboximidamide] |  |  | 
34 | 14.3 | 2.3 | 33 |  | CN1CCCC1CCn1c(Cc2ccccc2)cc2ccc(NC(=N)c3cccs3)cc21 (stereo not drawn) [Compound 162] |  |  | 
35 | 41.1 | 0.7 | 28.3 |  | CN(C)CCCn1ccc2ccc(NC(=N)c3cccs3)cc21 [Compound 157, N-(1-(3-(dimethylamino)propyl)-1H-indol-6-yl)thiophene-2-carboximidamide] |  |  | 
36 | 12.1 | 1.4 | 17 |  | N=C(Nc1ccc2ccn(CCCN3CCOCC3)c2c1)c1ccsc1 [Compound 182] |  |  | 
37 | 2.11 | 2.73 | 5.77 |  | CN(C)CCCn1ccc2ccc(NC(=N)c3cccs3)cc21 [Compound 160] |  |  | 
38 |  |  |  | 2.78 | CN1CC=C(c2c[nH]c3ccc(NC(=N)c4cccs4)cc23)C(F)C1 (stereo not drawn) [Compound 134, N-(3-(3-fluoro-1-methyl-1,2,3,6-tetrahydropyridin-4-yl)-1H-indol-5-yl)thiophene-2-carboximidamide] | 51.4 | 143 | 
39 | 120 | 0.2 | 24 |  | CN1CCC[C@H]1CCn1ccc2ccc(NC(=N)c3cccs3)cc21 [Compound 139] |  |  | 
